Results as given in patent publication US8481495B2 (TetraLogic Pharmaceuticals Corporation, priority 2009, dated 2013).

Legend:
cIAP-1 BIR-3 = molecular target: T1, cIAP-1 BIR-3 (Homo sapiens, UniProt Q13490); assay: Fluorescence polarization binding to cIAP-1 BIR-3 with labeled peptide AbuRPF-K(5-Fam)-NH2; settings: cIAP-1 BIR-3, 40 nM BIR3, 5 nM labeled peptide, 15 min RT, pH 7.5; read-out: cIAP1, nM (binding affinity KD, as range)
T1 construct: 40 nM of the respective IAP BIR3
Outline: (§1)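 Competitive FP with 5 nM 5-Fam-labelled Smac-mimetic peptide and 40 nM IAP BIR3, 15 min at RT in 0.1 M potassium phosphate pH 7.5 with bovine γ-globulin. Polarization (mP) read at 485/520 nm; KD reported as ranges A–D (A <0.1 μM to D >10 μM).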

XIAP BIR-3 = molecular target: T2, XIAP BIR-3 (Homo sapiens, UniProt P98170); assay: Fluorescence polarization binding to XIAP BIR-3 with labeled peptide AbuRPF-K(5-Fam)-NH2; settings: XIAP BIR-3, 40 nM BIR3, 5 nM labeled peptide, 15 min RT, pH 7.5; read-out: XIAP, nM (binding affinity KD, as range)
T2 construct: 40 nM of the respective IAP BIR3
Outline: as §1

SK-OV-3 cells = assay: MTT cell growth inhibition assay in ovarian cancer cell line SK-OV-3; format: cell-based; settings: Homo sapiens, 72 hrs incubation, read-out: SKOV3, nM (CC50, concentration giving 50% cell survival, as range)
Outline: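 SK-OV-3 cells (5,000 per well, McCoy's medium with 10% FBS) exposed to compounds at 0.003-10 μM for 72 h at 37°C, followed by MTT for 3 h, DMSO solubilisation and OD at 535 nm. CC50 is the concentration giving 50% survival relative to control wells, reported in ranges (A <0.1 μM to D >10 μM).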

T2 sequence (P98170 241-356 limits assumed): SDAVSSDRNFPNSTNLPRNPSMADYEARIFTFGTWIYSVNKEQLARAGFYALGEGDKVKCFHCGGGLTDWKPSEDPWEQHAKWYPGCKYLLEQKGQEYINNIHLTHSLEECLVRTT
T1 sequence (Q13490 253-363 limits assumed): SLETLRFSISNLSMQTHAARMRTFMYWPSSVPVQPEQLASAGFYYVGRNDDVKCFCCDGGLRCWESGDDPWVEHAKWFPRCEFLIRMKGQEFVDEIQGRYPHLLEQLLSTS

Row | Compound | Kd (cIAP-1 BIR-3) [nM] | Kd (XIAP BIR-3) [nM] | CC50 (SK-OV-3 cells) [nM]
1 | CN[C@@H](C)C(=O)N[C@H](C(=O)N1CC[C@@H]2[C@H]1[C@@H](C(=O)Nc1cccc3cnccc13)CN2S(C)(=O)=O)C(C)(C)C [Example 44, 4-[3,3-Dimethyl-2-(2-methylamino-propionylamino)-butyryl]-1-methanesulfonyl-octahydro-pyrrolo[3,2-b]pyrrole-3-carboxylic acid isoquinolin-5-ylamide] | < 100 | 100 to 1000 | < 100
2 | CN[C@@H](C)C(=O)N[C@H](C(=O)N1CC[C@@H]2[C@H]1[C@@H](C(=O)Nc1cccc3ccncc13)CN2S(C)(=O)=O)C(C)(C)C [Example 45, 4-[3,3-Dimethyl-2-(2-methylamino-propionylamino)-butyryl]-1-methanesulfonyl-octahydro-pyrrolo[3,2-b]pyrrole-3-carboxylic acid isoquinolin-8-ylamide] | < 100 | 100 to 1000 | 100 to 1000
3 | CN[C@@H](C)C(=O)N[C@H](C(=O)N1CC[C@@H]2[C@H]1[C@@H](C(=O)Nc1cccc3cccnc13)CN2S(C)(=O)=O)C(C)(C)C [Example 46, 4-[3,3-Dimethyl-2-(2-methylamino-propionylamino)-butyryl]-1-methanesulfonyl-octahydro-pyrrolo[3,2-b]pyrrole-3-carboxylic acid quinolin-8-ylamide] | < 100 | 100 to 1000 | < 100
4 | CN[C@@H](C)C(=O)N[C@H](C(=O)N1CC[C@@H]2[C@H]1[C@@H](C(=O)Nc1cccc3ncccc13)CN2S(C)(=O)=O)C(C)(C)C [Example 47, 4-[3,3-Dimethyl-2-(2-methylamino-propionylamino)-butyryl]-1-methanesulfonyl-octahydro-pyrrolo[3,2-b]pyrrole-3-carboxylic acid quinolin-5-ylamide] | < 100 | < 100 | < 100
5 | CN[C@@H](C)C(=O)N[C@H](C(=O)N1CC[C@@H]2[C@H]1[C@@H](C(=O)Nc1cc(C)nc3ccccc13)CN2S(C)(=O)=O)C(C)(C)C [Example 48, 4-[3,3-Dimethyl-2-(2-methylamino-propionylamino)-butyryl]-1-methanesulfonyl-octahydro-pyrrolo[3,2-b]pyrrole-3-carboxylic acid (2-methyl-quinolin-4-yl)-amide] | < 100 | < 100 | < 100

Second part, led by results:

Row | Kd (cIAP-1 BIR-3) [nM] | Kd (XIAP BIR-3) [nM] | Compound | CC50 (SK-OV-3 cells) [nM]
6 | < 100 | < 100 | CN[C@@H](C)C(=O)N[C@H](C(=O)N1CC[C@@H]2[C@H]1[C@@H](C(=O)Nc1nccc3ccccc13)CN2S(C)(=O)=O)C(C)(C)C [Example 49, 4-[3,3-Dimethyl-2-(2-methylamino-propionylamino)-butyryl]-1-methanesulfonyl-octahydro-pyrrolo[3,2-b]pyrrole-3-carboxylic acid isoquinolin-1-ylamide] | < 100
7 | < 100 | 100 to 1000 | CN[C@@H](C)C(=O)N[C@H](C(=O)N1CC[C@@H]2[C@H]1[C@@H](C(=O)Nc1ccc3ncccc3c1)CN2S(C)(=O)=O)C(C)(C)C [Example 50, 4-[3,3-Dimethyl-2-(2-methylamino-propionylamino)-butyryl]-1-methanesulfonyl-octahydro-pyrrolo[3,2-b]pyrrole-3-carboxylic acid quinolin-6-ylamide] | < 100
8 | < 100 | 100 to 1000 | CN[C@@H](C)C(=O)N[C@H](C(=O)N1CC[C@@H]2[C@H]1[C@@H](C(=O)Nc1cnc3ccccc3c1)CN2S(C)(=O)=O)C(C)(C)C [Example 51, 4-[3,3-Dimethyl-2-(2-methylamino-propionylamino)-butyryl]-1-methanesulfonyl-octahydro-pyrrolo[3,2-b]pyrrole-3-carboxylic acid quinolin-3-ylamide] | < 100
9 | < 100 | 100 to 1000 | CN[C@@H](C)C(=O)N[C@H](C(=O)N1CC[C@@H]2[C@H]1[C@@H](C(=O)Nc1ccc3ccccc3n1)CN2S(C)(=O)=O)C(C)(C)C [Example 52, 4-[3,3-Dimethyl-2-(2-methylamino-propionylamino)-butyryl]-1-methanesulfonyl-octahydro-pyrrolo[3,2-b]pyrrole-3-carboxylic acid quinolin-2-ylamide] | < 100
10 | < 100 | < 100 | CN[C@@H](C)C(=O)N[C@H](C(=O)N1CC[C@@H]2[C@H]1[C@@H](C(=O)Nc1cccc3ccccc13)CN2C(=O)CNC(=O)C(=O)NCC(=O)N1C[C@H](C(=O)Nc2cccc3ccccc23)[C@@H]2[C@H]1CCN2C(=O)[C@@H](NC(=O)[C@H](C)NC)C(C)(C)C)C(C)(C)C [Example 53, N,N′-Bis-{2-[4-[3,3-dimethyl-2-(2-methylamino-propionylamino)-butyryl]-3-(naphthalen-1-ylcarbamoyl)-hexahydro-pyrrolo[3,2-b]pyrrol-1-yl]-2-oxo-ethyl}-oxalamide] | < 100
11 | < 100 | < 100 | CN[C@@H](C)C(=O)N[C@H](C(=O)N1CC[C@@H]2[C@H]1[C@@H](C(=O)Nc1ccc(F)cc1)CN2C(=O)CNC(=O)C(=O)NCC(=O)N1C[C@H](C(=O)Nc2ccc(F)cc2)[C@@H]2[C@H]1CCN2C(=O)[C@@H](NC(=O)[C@H](C)NC)C(C)(C)C)C(C)(C)C [Example 54, N,N′-Bis-{2-[4-[3,3-dimethyl-2-(2-methylamino-propionylamino)-butyryl]-3-(4-fluoro-phenylcarbamoyl)-hexahydro-pyrrolo[3,2-b]pyrrol-1-yl]-2-oxo-ethyl}-oxalamide] | < 100
